# Measured values taken from patent US20040132079A1, “Assays relating to Toll-like receptor activity” (3M Innovative Properties Company, priority 2002, published 2004).
# Target: T1, human TLR6 (Homo sapiens, UniProt Q9Y2C9)
# T1 construct: expressed in transfected cells; host or cells: Namalwa cells (ATCC CRL-1432), co-transfected with pIFN-α1-luc and pCI-TLR6, G418-selected
# T1 sequence (Q9Y2C9 32-796): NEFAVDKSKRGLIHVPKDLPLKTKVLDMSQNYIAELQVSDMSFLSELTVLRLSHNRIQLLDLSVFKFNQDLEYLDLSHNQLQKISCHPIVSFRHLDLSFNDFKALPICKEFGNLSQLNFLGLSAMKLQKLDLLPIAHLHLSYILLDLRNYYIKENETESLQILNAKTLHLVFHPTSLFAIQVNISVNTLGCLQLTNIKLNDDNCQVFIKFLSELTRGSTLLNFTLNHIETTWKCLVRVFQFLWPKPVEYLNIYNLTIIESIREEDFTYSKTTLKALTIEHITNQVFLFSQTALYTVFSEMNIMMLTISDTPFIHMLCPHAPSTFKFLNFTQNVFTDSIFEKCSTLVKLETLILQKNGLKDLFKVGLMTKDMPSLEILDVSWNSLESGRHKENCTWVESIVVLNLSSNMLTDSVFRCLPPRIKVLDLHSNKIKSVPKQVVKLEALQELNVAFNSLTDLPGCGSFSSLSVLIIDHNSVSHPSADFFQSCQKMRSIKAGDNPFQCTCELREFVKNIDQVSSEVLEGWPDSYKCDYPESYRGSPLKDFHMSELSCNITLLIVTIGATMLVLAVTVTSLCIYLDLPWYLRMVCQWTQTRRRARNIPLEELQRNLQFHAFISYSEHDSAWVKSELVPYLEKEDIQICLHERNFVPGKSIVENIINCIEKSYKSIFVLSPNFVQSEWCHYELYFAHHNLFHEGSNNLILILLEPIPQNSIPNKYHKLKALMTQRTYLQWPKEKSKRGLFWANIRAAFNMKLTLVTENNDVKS
# Assay: Luciferase induction off of the IFN-α1 promoter in pIFN-α1-luc/pCI-TLR6 co-transfected Namalwa cells
# Type: cell-based
# Settings: IRM compound 10 μM, 18 hours, compared to DMSO negative control, representative experiment
# Excerpt: The vector pIFN-α1-luc was constructed by inserting BglII sites at both ends of the human IFN-α1 promoter (SEQ ID NO:21). The BglII sites were inserted into the IFN-α1 promoter and the sequence was amplified using the primer pair of SEQ ID NO:22 and SEQ ID NO:23. The amplified IFN-α1 promoter was cloned into the pGL3-Enhancing vector (Promega Corp., Madison, Wis.) at the BglII site.
# The vector pCI-TLR6 was constructed by inserting SEQ ID NO:11 (GenBank Accession No. NM 006068), which includes the human TLR6 coding sequence, into the pCI-neo mammalian expression vector (Promega Corp.) at the vector's NheI and MluI restriction sites.
# Burkitt's Lymphoma lymphoblastoid Namalwa cells (ATCC Accession No. CRL-1432) were grown by incubation in culture medium overnight. Cells were harvested by centrifugation in a tabletop centrifuge (1200 RPM for 5 minutes), and then resuspended in phosphate buffered sucrose to a concentration of 1.3×10^7 cells per milliliter.
# For each transfection, a 750 μL aliquot of the cell suspension was placed in an electroporation cuvette with 4 mm gaps. 10 μg of the pIFN-α1-luc vector and 10 μg of the pCI-TLR6 vector were added to the electroporation cuvette. The cell and vector mixtures were incubated at room temperature for 5 minutes. The cells were electroporated using a BioRad Gene Pulser (BioRad Laboratories, Hercules, Calif.) set to at 500 μF capacitance and […], then incubated at room temperature for 5 minutes.
# The electroporated cells were suspended in 10 mLs of culture medium and incubated overnight. Dead cells and debris were removed after 24 hours using a MACS Dead Cell Removal kit (Miltenyi Biotec, Auburn, Calif.). Cells were resuspended in 10 mLs of culture medium and incubated for an additional 24 hours.
# Transfected cells were selected by adding G418 (Promega Corp., Madison, Wis.) to a final concentration of 1 mg/mL and incubating the cells for seven days.
# The selected transfected cells were counted and resuspended to a concentration of 1×10^6 cell per mL in culture medium. 100 μl aliquots of cells were placed in the wells of a white-walled, white-bottomed 96-well plate (Corning, Inc. Corning, N.Y.). 1.0 μL of an IRM compound from Table 1 (prepared at 1 mM in 100% DMSO) was added to some cell aliquots so that the final concentration of IRM compound was 10 μM. As a positive control, some cell aliquots were incubated with Sendai virus instead of IRM compound. As a negative control, some cell aliquots were incubated with DMSO without IRM compound. In all cases, the cells were incubated for 18 hours.
# The plates were equilibrated to room temperature before 1 volume of reconstituted LucLight Plus (Packard Instruments, Meriden, Conn.) was added to each aliquot of cells. Each well of the plate was read on an LJL Analyst (LJL Biosystems, Inc., Sunnyvale, Calif.) set with a 5 minute dark adapt. The data are expressed as the fold increase in luciferase induction off of the IFN-α1 promoter in cell aliquots incubated with the indicated stimulant compared to the negative control in which the cell aliquots were incubated with only DMSO.
row,Structure (SMILES),Fold Increase in Luciferase Induction [fold]
1,"CCc1nc2c(N)nc3ccccc3c2n1CCCCCS(C)(=O)=O [IRM8, 2-ethyl-1-[5-(methylsulfonyl)-pentyl]-1H-imidazo[4,5-c]quinolin-4-amine]",2.3
2,"CCCCc1nc2c(N)nc3cccnc3c2n1CC(C)C [IRM5, 2-butyl-1-(2-methylpropyl)-1H-imidazo[4,5-c][1,5]naphthyridin-4-amine]",3.2
3,"CCOCc1nc2c(N)nc3c(c2n1CC(C)(C)O)CCCC3 [IRM1, 4-amino-2-ethoxymethyl-α,α-dimethyl-6,7,8,9-tetrahydro-1H-imidazo[4,5-c]quinoline-1-ethanol]",3.6
4,"CCCCc1nc2c(N)nc3c(c2n1CC(C)C)NCCC3 [IRM6, 2-butyl-6,7,8,9-tetrahydro-1-(2-methylpropyl)-1H-imidazo[4,5-c][1,5]naphthyridin-4-amine]",2.9
5,"Nc1nc2ccccc2c2c1ncn2CCOCCCc1cccnc1 [IRM4, 1-{2-[3-(3-pyridyl)-propoxy]ethyl}-1H-imidazo[4,5-c]quinolin-4-amine]",4.0
6,"COCCc1nc2c(N)nc3ccccc3c2n1CCCCNC(=O)c1ccc(-n2cccc2)nc1 [IRM7, N^3-{4-[4-amino-2-(2-methoxyethyl)-1H-imidazo[4,5-c]quinolin-1-yl]butyl}-6-(1H-1-pyrrolyl)nicotinamide]",3.2
7,"CCCCc1nc2c(N)nc3ccccc3c2n1CCCCNS(C)(=O)=O [IRM3, N-[4-(4-amino-2-butyl-1H-imidazo[4,5-c]quinolin-1-yl)butyl]methanesulfonamide]",2.6
8,"Cc1nc2c(N)nc3ccccc3c2n1CC(C)(C)O [IRM2, 4-amino-α,α,2-trimethyl-1H-imidazo[4,5-c]quinoline-1-ethanol]",2.7
